SMILES strings stand for the structures.

Assay [1] addresses T1, NLRP3 inflammasome (Homo sapiens, UniProt Q96P20). In words: NLRP3 inflammasome activity: caspase-1 cleavage (Western blotting). The following applies: PMA-differentiated THP-1 macrophages; 20 μM pretreatment 2 hours, MSU 200 μg/ml 6 hours. On the technique in general: A western blot detects proteins with antibodies after separation by electrophoresis.
In assay [2] the test system is HPAEC. Nature of the assay: Cell cycle analysis by flow cytometry (PI), high glucose-induced G1 phase arrest. It counts as cell-based, human. Particulars: 5 μM and 20 μM pretreatment 2 hours, 33 mM high glucose 48 hours, dose-dependent. On the procedure: (§1) Similar to Experimental Example 1, a high-fat diet evaluation system at the cellular level was established.
Specifically, two types of vascular endothelial cells, namely, HUVEC and HPAEC cells, were pretreated with Saikosaponin C at concentrations of 5 μM and 20 μM for 2 hours, then treated with high glucose (33 mM) for 48 hours, and then immobilized with cold 70% ethanol. The DNA of the immobilized vascular endothelial cells was stained with PI (propidium iodide, 50 μg/ml) solution and the cell cycle was analyzed using a flow cytometer. In addition, the expression of cell cycle regulatory proteins such as p21, p27, and p16 was analyzed after treatment with high glucose (33 mM) for 36 hours.
Since cellular senescence is closely related to the arrest in the G1 phase of the cell cycle, the cell cycle was evaluated using flow cytometry (FIG. 4A and FIG. 4B). In addition, the expression of p21, p27, and p16 proteins, which are G1 phase growth arrest-inducing proteins, was measured through Western blotting (FIG. 4C, FIG. 4D).
On the technique in general: In flow cytometry, cells or beads pass a laser one at a time.

A further assay deals with HUVEC. Nature of the assay: Fluorescence image analysis of high glucose-induced ROS generation. It counts as cell-based, human. The following applies: 5 μM and 20 μM pretreatment 2 hours, 33 mM high glucose 24 hours, dose-dependent. On the procedure: as §1
(§2) Specifically, two types of vascular endothelial cells, namely, HUVEC and HPAEC cells, were pretreated with Saikosaponin C at concentrations of 5 μM and 20 μM for 2 hours, and then treated with high glucose at a concentration of 33 mM for 24 hours. Then, hydrogen peroxide (H2O2) and superoxide anion (O2^⋅−) generated in the cytoplasm and mitochondria were measured using each fluorescent probe. In addition, samples treated with 100 μM hydrogen peroxide (a ROS-inducing agent) for 1 hour and then treated for an additional 23 hours after medium change were used as positive control groups.
(§3) Different analytical reagents were used depending on the type of ROS and the intracellular location where they were generated. Specifically, cytosolic hydrogen peroxide, cytosolic superoxide anion, mitochondrial hydrogen peroxide, and mitochondrial superoxide anion were measured using H2DCFDA (2,7-dichlorodihydrofluorescein diacetate), DHE (dihydroethidium), DHR (dihydrorhodamine 123), and Mito-SOX reagents, respectively. The H2DCFDA (1 μM, 45 min staining), DHE (10 µM, 60 min staining), DHR (20 µM, 30 min staining), and Mito-SOX (5 μM, 10 min staining) were used as ROS-specific fluorescent probes for fluorescence image analysis.

The test system of assay [3] is HPAEC. The description is as above. In kind it is cell-based, human. Particulars: 5 μM and 20 μM pretreatment 2 hours, 33 mM high glucose 24 hours, dose-dependent. On the procedure: as §1, §2, §3
The test system of a further assay is AoSMC. In words: Wound healing and transwell migration assay, PDGF-BB-induced. In kind it is cell-based, human. The following applies: 5 μM and 20 μM pretreatment 2 hours, PDGF-BB 20 ng/ml 24 hours. Here is the method: (§4) Specifically, two types of vascular smooth muscle cells, namely, AoSMC (human aortic smooth muscle cells) and CASMC (human coronary artery smooth muscle cells), were pretreated with Saikosaponin C at concentrations of 5 μM and 20 μM for 2 hours, and then treated with PDGF-BB (20 ng/ml), a platelet-derived growth factor (PDGF), for 24 hours. Then, the proliferation and migration of vascular smooth muscle cells were observed. A wound healing assay was performed to observe the proliferation and migration of vascular smooth muscle cells, and a transwell migration assay was performed to observe the migration ability of vascular smooth muscle cells.
(§5) FIGS. 10A and 10B show the results of evaluating the proliferation and migration of vascular smooth muscle cells (AoSMC, CASMC) through a scratch wound healing assay. FIGS. 10C and 10D show the results of analyzing the cell migration ability of the same cells using a Transwell migration chamber with a pore size of 8.0 μm.

In another assay the test system is CASMC. The description is as above. In kind it is cell-based, human. Particulars: 5 μM and 20 μM pretreatment 2 hours, PDGF-BB 20 ng/ml 24 hours. Here is the method: as §4, §5
For another assay, the system named is Sirt1 in HPAEC. Nature of the assay: Sirt1 activity assay kit and Western blotting (expression, phosphorylation). It counts as cell-based, human. Particulars: 5 μM and 20 μM pretreatment 2 hours, 33 mM high glucose 36 hours, dose-dependent. On the procedure: as §1
(§6) Specifically, two types of vascular endothelial cells, namely, HUVEC and HPAEC cells, were pretreated with Saikosaponin C at concentrations of 5 μM and 20 μM for 2 hours, and then treated with high glucose at a concentration of 33 mM for 36 hours. Then, Sirt1 activity, protein expression and phosphorylation levels were analyzed.
(§7) Sirt1 activity was measured using the Sirt1 Activity Assay Kit (FIG. 7A and FIG. 7B), and Sirt1 protein expression and phosphorylation (Ser27, Ser47) were measured through Western blotting (FIG. 7C and FIG. 7D).

The next assay relates to Sirt1 in HUVEC. The assay is described as above. Particulars: 5 μM and 20 μM pretreatment 2 hours, 33 mM high glucose 36 hours, dose-dependent. It counts as cell-based, human. Here is the method:
as §1, §6, §7

Assay [4] deals with T1, NLRP3 inflammasome. Nature of the assay: NLRP3 inflammasome activity: IL-1β secretion (Solid Phase Sandwich ELISA). The following applies: PMA-differentiated THP-1 macrophages; 20 μM pretreatment 2 hours, MSU 200 μg/ml 6 hours.
Assay [5] has as its system ICAM-1 and VCAM-1 in HCAEC. Nature of the assay: Western blotting of adhesion proteins after TNF-α. It counts as cell-based, human. Particulars: 5 μM and 20 μM pretreatment 2 hours, TNF-α 20 ng/ml 8 hours. On the procedure:
(§8) Specifically, two types of vascular endothelial cells, namely, HUVEC (human umbilical vein endothelial cells) and HCAEC (human coronary artery endothelial cells), were pretreated with Saikosaponin C at concentrations of 5 μM and 20 μM for 2 hours, and then treated with TNF-α (20 ng/ml) for 8 hours. Then, adhesion of monocyte-vascular endothelial cell and expression of cell adhesion molecules (ICAM-1, VCAM-1) of vascular endothelial cells were observed. […] The adhesion of monocyte-endothelial cells was evaluated by imaging analysis using a confocal microscope and fluorescence analysis using a microplate reader, and expression of adhesion proteins (ICAM-1 and VCAM-1) was evaluated by Western blotting.
(§9) Calcein AM fluorescence was analyzed using a confocal microscope and a microplate reader, and the expression of cell adhesion proteins (ICAM-1, VCAM-1) were evaluated through Western blotting.
(§10) FIGS. 9A and 9B show the results of analysis of monocyte-endothelial cell adhesion in two types of vascular endothelial cells (HUVEC, HCAEC) using a confocal microscope, and FIGS. 9C and 9D show the results of analysis of Calcein AM fluorescence (at an excitation wavelength of 488 nm, and at an emission wavelength of 517 nm) in the same experiment using a microplate reader. […]

Assay [6] relates to ICAM-1 and VCAM-1 in HUVEC. In words: Western blotting of adhesion proteins after TNF-α. In kind it is cell-based, human. The following applies: 5 μM and 20 μM pretreatment 2 hours, TNF-α 20 ng/ml 8 hours. On the procedure: as §8, §9, §10

T1 sequence (Q96P20 whole entry): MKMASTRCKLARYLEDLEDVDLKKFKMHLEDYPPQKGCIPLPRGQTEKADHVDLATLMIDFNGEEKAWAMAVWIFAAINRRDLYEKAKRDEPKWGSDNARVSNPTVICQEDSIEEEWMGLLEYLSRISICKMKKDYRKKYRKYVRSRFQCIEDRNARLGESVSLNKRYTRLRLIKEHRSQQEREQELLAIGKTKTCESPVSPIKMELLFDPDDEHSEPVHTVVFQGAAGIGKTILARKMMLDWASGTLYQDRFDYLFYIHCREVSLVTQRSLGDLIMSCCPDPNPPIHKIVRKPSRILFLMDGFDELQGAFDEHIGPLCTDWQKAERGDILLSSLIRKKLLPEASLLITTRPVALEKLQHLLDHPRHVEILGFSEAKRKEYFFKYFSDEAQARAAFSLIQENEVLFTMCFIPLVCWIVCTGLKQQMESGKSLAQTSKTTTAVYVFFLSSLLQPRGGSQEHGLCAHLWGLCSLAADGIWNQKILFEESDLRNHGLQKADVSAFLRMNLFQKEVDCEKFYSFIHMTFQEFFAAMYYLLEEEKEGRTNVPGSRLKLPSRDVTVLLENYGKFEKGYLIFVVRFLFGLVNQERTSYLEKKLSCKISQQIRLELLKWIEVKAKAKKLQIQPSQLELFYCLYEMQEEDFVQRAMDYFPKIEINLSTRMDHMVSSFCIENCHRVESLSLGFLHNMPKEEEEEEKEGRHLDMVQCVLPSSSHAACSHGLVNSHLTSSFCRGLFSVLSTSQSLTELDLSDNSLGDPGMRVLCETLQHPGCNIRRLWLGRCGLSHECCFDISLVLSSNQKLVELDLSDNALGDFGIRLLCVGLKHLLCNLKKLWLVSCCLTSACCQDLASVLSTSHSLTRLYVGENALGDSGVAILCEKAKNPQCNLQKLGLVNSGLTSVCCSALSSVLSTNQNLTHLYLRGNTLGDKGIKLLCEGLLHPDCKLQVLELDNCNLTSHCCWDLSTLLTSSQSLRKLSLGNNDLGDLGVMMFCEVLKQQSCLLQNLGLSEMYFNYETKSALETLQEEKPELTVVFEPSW

With `CC1O[C@@H](O[C@@H]2C(CO[C@@H]3OC(CO)[C@@H](O)C(O)C3O)O[C@@H](O[C@H]3CC[C@]4(C)[C@H]5C=C[C@]67OC[C@@]8(CCC(C)(C)C[C@H]86)[C@@H](O)C[C@@]7(C)[C@]5(C)CC[C@H]4C3(C)C)C(O)C2O)C(O)C(O)[C@H]1O` (some centres unmarked) [Saikosaponin C], at NLRP3 inflammasome [1], the caspase-1 cleavage result is “inhibited”. The “high glucose-induced G1 phase arrest” value with HPAEC [2] is recorded as “significantly abolished”. Besides, the “high glucose-induced ROS generation (cytosolic and mitochondrial hydrogen peroxide and superoxide anion)” value in the assay on HUVEC and in the assay with HPAEC [3] was “significantly suppressed” throughout. Besides, the “PDGF-BB-increased proliferation and migration of vascular smooth muscle cells” value in the assay on AoSMC and in the assay on CASMC was “not inhibited” throughout. For the same molecule, the “high glucose-induced decrease in Sirt1 enzyme activity, protein expression, and phosphorylation” value in the assay with Sirt1 in HPAEC and with Sirt1 in HUVEC was “significantly alleviated” throughout. For the same molecule, on NLRP3 inflammasome [4], the IL-1β secretion result is “inhibited”. Further, the “expression of adhesion proteins (ICAM-1, VCAM-1) of vascular endothelial cells” value in assay [5] and in assay [6] was “inhibited” in each case.

The values are drawn from patent US20250177425A1, “SAIKOSAPONIN C AS COMPOSITION FOR TREATING OR PREVENTING AGE-RELATED VASCULAR DISEASES INCLUDING ARTERIOSCLEROSIS” (AGINGTARGET, INC., priority 2022, published 2025).
